Laboratory results: patent publication US8378104B2 (OSI Pharmaceuticals, LLC, priority 2010, dated 2013)
Structures can show the parent of a compound that is named as a salt.

Legend:
TAK1-TAB1 fusion protein = target: T1, TAK1-TAB1 fusion protein (Homo sapiens, UniProt O43318); experiment: TAK1 biochemical assay (AlphaScreen, GST-MAP2K7 substrate); details: TAK1-TAB1 fusion protein, GST-MAP2K7 substrate; read-out: mean TAK1 IC50 (Col. A)
T1 construct: purchased Carna
T1 sequence (O43318 with tags, fused parts or gaps limits assumed): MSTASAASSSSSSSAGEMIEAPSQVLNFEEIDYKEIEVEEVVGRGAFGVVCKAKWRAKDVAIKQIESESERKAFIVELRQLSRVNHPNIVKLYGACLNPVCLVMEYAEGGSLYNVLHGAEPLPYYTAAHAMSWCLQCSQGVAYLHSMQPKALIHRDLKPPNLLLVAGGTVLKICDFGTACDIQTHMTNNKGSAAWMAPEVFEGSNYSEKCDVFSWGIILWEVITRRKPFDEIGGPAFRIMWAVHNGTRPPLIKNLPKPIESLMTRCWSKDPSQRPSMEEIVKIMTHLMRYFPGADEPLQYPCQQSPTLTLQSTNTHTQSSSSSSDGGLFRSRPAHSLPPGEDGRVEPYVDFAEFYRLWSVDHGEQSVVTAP

pJNK in HCT-116 cells = experiment: Phospho-JNK (Thr183/Tyr185) Meso Scale ELISA assay, TNFα-stimulated HCT-116 cells; assay type: cell-based; details: Homo sapiens, read-out: mean HCT-116 pJNK ELISA IC50 (Col. B)
In short: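 Meso Scale ELISA read of phospho-JNK (Thr183/Tyr185) in lysed HCT-116 cells. Cells were serum-reduced to 1% FCS for 2 hours, exposed to test drug for 4 hrs at 37° C, then given 10 ng/mL TNFα (final) for 10 minutes before lysis.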

p-p38 in HCT-116 cells = experiment: Phospho-p38 Meso Scale ELISA assay, TNFα-stimulated HCT-116 cells; assay type: cell-based; details: Homo sapiens, read-out: mean HCT-116 p-p38 ELISA IC50 (Col. C)
In short: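 Phospho-p38 measured by Meso Scale ELISA on diluted lysates, captured overnight at 4° C. Before lysis, HCT-116 cells were serum-reduced (1% FCS, 2 h), treated with compounds 4 h at 37° C and stimulated 10 min with 10 ng/mL TNFα final.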

Compound	IC50 (TAK1-TAB1 fusion protein) [nM]	IC50 (pJNK in HCT-116 cells) [nM]	IC50 (p-p38 in HCT-116 cells) [nM]
Nc1ncc(-c2cnn(C3CCCCC3)c2)c2cc(-c3c[nH]c4cnccc34)oc12 [Example 89, 4-(1-cyclohexyl-1H-pyrazol-4-yl)-2-(1H-pyrrolo[2,3-c]pyridin-3-yl)furo[2,3-c]pyridin-7-amine]	< 100	100 to 1000	100 to 1000
Cc1nn(CC(C)(C)O)cc1-c1cnc(N)c2oc(-c3csc4cnccc34)cc12 [Example 289, 1-[4-(7-amino-2-thieno[2,3-c]pyridin-3-yl-furo[2,3-c]pyridin-4-yl)-3-methyl-pyrazol-1-yl]-2-methyl-propan-2-ol]	1000 to 10000	100 to 1000	1000 to 10000
CC(=O)N1CCC(n2cc(-c3cnc(N)c4oc(-c5cccc6[nH]ncc56)cc34)cn2)CC1 [Example 177, 1-(4-{4-[7-amino-2-(1H-indazol-4-yl)furo[2,3-c]pyridin-4-yl]-1H-pyrazol-1-yl}piperidin-1-yl)ethanone]	< 100	100 to 1000	100 to 1000
CC(=O)N1CCC(n2cc(-c3cnc(N)c4oc(-c5ccc6[nH]nc(C#N)c6c5)cc34)cn2)CC1 [Example 236, 5-{4-[1-(1-acetylpiperidin-4-yl)-1H-pyrazol-4-yl]-7-aminofuro[2,3-c]pyridin-2-yl}-1H-indazole-3-carbonitrile]	100 to 1000	1000 to 10000	> 10000
Nc1ncc(-c2cnn([C@H]3CC[C@H](O)CC3)c2)c2cc(-c3csc4cnc(F)cc34)oc12 [Example 249, trans-4-{4-[7-amino-2-(5-fluorothieno[2,3-c]pyridin-3-yl)furo[2,3-c]pyridin-4-yl]-1H-pyrazol-1-yl}cyclohexanol]	< 100	< 100	< 100
CC(=O)N1CCC(n2cc(-c3cnc(N)c4oc(-c5ccc6c(c5)CCC(=O)N6)cc34)cn2)CC1 [Example 154, 6-{4-[1-(1-acetylpiperidin-4-yl)-1H-pyrazol-4-yl]-7-aminofuro[2,3-c]pyridin-2-yl}-3,4-dihydroquinolin-2(1H)-one]	100 to 1000	1000 to 10000	1000 to 10000
CSc1ccccc1-c1cc2c(-c3cnn(C4CCN(C(C)=O)CC4)c3)cnc(N)c2o1 [Example 216, 1-[4-(4-{7-amino-2-[2-(methylsulfanyl)phenyl]furo[2,3-c]pyridin-4-yl}-1H-pyrazol-1-yl)piperidin-1-yl]ethanone]	100 to 1000	100 to 1000	100 to 1000
Nc1ncc(-c2cnn(C3CCN(C(=O)C4CCC4)CC3)c2)c2cc(-c3cccc4cnccc34)oc12 [Example 53, (4-{4-[7-amino-2-(isoquinolin-5-yl)furo[2,3-c]pyridin-4-yl]-1H-pyrazol-1-yl}piperidin-1-yl)(cyclobutyl)methanone]	100 to 1000	< 100	100 to 1000
CC(=O)N1CCC(n2cc(-c3cnc(N)c4oc(-c5csc6cncc(F)c56)cc34)cn2)CC1 [Example 254, 1-(4-{4-[7-amino-2-(4-fluorothieno[2,3-c]pyridin-3-yl)furo[2,3-c]pyridin-4-yl]-1H-pyrazol-1-yl}piperidin-1-yl)ethanone trifluoroacetic Acid Salt]	< 100	100 to 1000	100 to 1000
CC(=O)N1CCC(n2cc(-c3cnc(N)c4oc(-c5c[nH]c6cc(C#N)ccc56)cc34)cn2)CC1 [Example 222, 3-{4-[1-(1-acetylpiperidin-4-yl)-1H-pyrazol-4-yl]-7-aminofuro[2,3-c]pyridin-2-yl}-1H-indole-6-carbonitrile]	100 to 1000	100 to 1000	100 to 1000
CC(=O)N1CCC(n2cc(-c3cnc(N)c4oc(-c5ccc(O)cc5)cc34)cn2)CC1 [Example 120, 1-(4-{4-[7-amino-2-(4-hydroxyphenyl)furo[2,3-c]pyridin-4-yl]-1H-pyrazol-1-yl}piperidin-1-yl)ethanone]	100 to 1000	100 to 1000	100 to 1000
CS(=O)(=O)N1CCC(n2cc(-c3cnc(N)c4oc(-c5cccc6cnccc56)cc34)cn2)CC1 [Example 80, 2-(isoquinolin-5-yl)-4-{1-[1-(methylsulfonyl)piperidin-4-yl]-1H-pyrazol-4-yl}furo[2,3-c]pyridin-7-amine]	100 to 1000	< 100	100 to 1000
COCC(=O)N1CCC(n2cc(-c3cnc(N)c4oc(-c5cccc6cnccc56)cc34)cn2)CC1 [Example 50, 1-(4-{4-[7-amino-2-(isoquinolin-5-yl)furo[2,3-c]pyridin-4-yl]-1H-pyrazol-1-yl}piperidin-1-yl)-2-methoxyethanone]	100 to 1000	100 to 1000	100 to 1000
